Target: JAK1 (Homo sapiens (Human), UniProt P23458)
Assay: Analysis of JAK1 activity inhibition ability (ADP-Glo Kinase Assay)
Assay type: biochemical
Settings: JAK1 enzyme, ADP-Glo luminescence, ATP 250 uM, IRS-itide substrate, 30° C. 40 minutes; read-out: IC50
Procedure, shortened: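 ADP-Glo luminescence read-out of ADP production, with IC50 taken as the concentration halving JAK1 activity relative to control. Enzyme was incubated 40 min at 30 °C with compound, IRS-itide (40 ng/mL) and ATP (250 uM), concentrations as prepared in pH 7.5 Tris-HCl/MgCl2/BSA/DTT buffer.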

JAK1, sequence (P23458 whole entry): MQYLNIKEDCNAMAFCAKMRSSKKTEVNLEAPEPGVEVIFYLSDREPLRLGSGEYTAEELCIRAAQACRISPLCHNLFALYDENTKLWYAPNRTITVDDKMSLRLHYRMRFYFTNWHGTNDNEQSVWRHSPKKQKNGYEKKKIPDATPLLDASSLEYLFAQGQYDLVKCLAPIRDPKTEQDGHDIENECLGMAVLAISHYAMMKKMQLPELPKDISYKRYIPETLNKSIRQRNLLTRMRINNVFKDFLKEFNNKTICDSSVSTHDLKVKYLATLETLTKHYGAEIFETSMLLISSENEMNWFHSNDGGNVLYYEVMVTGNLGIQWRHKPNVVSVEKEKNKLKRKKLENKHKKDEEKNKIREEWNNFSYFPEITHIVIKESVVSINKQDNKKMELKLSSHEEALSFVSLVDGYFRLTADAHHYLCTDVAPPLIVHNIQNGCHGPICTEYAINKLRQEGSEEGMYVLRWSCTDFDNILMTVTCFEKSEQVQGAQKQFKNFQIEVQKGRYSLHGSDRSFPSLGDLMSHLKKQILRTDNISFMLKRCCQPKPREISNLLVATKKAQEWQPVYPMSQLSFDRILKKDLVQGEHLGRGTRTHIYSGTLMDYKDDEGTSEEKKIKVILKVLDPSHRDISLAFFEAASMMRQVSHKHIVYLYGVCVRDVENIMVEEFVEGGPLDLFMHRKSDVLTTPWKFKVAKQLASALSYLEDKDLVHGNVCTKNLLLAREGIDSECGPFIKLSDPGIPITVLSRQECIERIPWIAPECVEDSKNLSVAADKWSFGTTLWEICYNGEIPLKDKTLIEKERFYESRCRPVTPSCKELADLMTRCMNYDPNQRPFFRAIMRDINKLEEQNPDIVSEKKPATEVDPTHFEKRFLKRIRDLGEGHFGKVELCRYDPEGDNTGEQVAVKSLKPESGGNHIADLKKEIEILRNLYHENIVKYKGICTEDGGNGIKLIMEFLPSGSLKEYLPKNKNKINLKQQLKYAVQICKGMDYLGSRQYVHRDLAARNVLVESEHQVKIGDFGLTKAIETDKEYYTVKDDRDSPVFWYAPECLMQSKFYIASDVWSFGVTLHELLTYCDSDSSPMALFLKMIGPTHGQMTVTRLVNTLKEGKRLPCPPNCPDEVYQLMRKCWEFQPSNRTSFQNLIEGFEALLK

| Structure (SMILES) | IC50 [µM] |
| --- | --- |
| O=C(Nc1cc(C2=CCC(NS(=O)(=O)CCCF)CC2)c2cc[nH]c2n1)C1CC1 (stereo not drawn) [Example 159, N-(4-(4-((3-fluoropropyl)sulfonamido)cyclohex-1-en-1-yl)-1H-pyrrolo[2,3-b]pyridin-6-yl)cyclopropanecarboxamide] | < 0.02 |
| CC[C@@H]1C=C(c2cc(NC(=O)C3CC3)nc3[nH]ccc23)CCN1C(=O)CC#N [Example 416, (R)—N-(4-(1-(2-cyanoacetyl)-6-ethyl-1,2,3,6-tetrahydropyridin-4-yl)-1H-pyrrolo[2,3-b]pyridin-6-yl)cyclopropanecarboxamide] | < 0.02 |
| O=C(Nc1cc(C2=CCN(C(=O)N3CCOCC3)CC2)c2cc[nH]c2n1)C1CC1 [Example 446, N-(4-(1-(morpholine-4-carbonyl)-1,2,3,6-tetrahydropyridin-4-yl)-1H-pyrrolo[2,3-b]pyridin-6-yl)cyclopropanecarboxamide] | > 0.2 |
| C[C@H]1CC(Nc2ccc(-c3cc(NC(=O)C4CC4)nc4[nH]ccc34)cc2)CCN1C(=O)NCC(F)(F)F (stereo partly drawn) [Example 504, (2S)-4-((4-(6-(cyclopropanecarboxamido)-1H-pyrrolo[2,3-b]pyridin-4-yl)phenyl)amino)-2-methyl-N-(2,2,2-trifluoroethyl)piperidine-1-carboxamide] | > 0.2 |
| O=C(Nc1cc(-c2ccc(CC(=O)N3CCCC3)cc2)c2cc[nH]c2n1)C1CC1 [Example 547, N-(4-(4-(2-oxo-2-(pyrrolidin-1-yl)ethyl)phenyl)-1H-pyrrolo[2,3-b]pyridin-6-yl)cyclopropanecarboxamide] | 0.02 to 0.2 |
| N#CC1(CC(=O)Nc2ccc(-c3cc(NC(=O)C4CC4)nc4[nH]ccc34)cc2)CC1 [Example 241, N-(4-(4-(2-(1-cyanocyclopropyl)acetamido)phenyl)-1H-pyrrolo[2,3-b]pyridin-6-yl)cyclopropanecarboxamide] | 0.02 to 0.2 |
| N#CCC1(CS(=O)(=O)Nc2ccc(-c3cc(NC(=O)C4CC4)nc4[nH]ccc34)cc2)CC1 [Example 89, N-(4-(4-(((1-(cyanomethyl)cyclopropyl)methyl)sulfonamido)phenyl)-1H-pyrrolo[2,3-b]pyridin-6-yl)cyclopropanecarboxamide] | < 0.02 |
| Cc1cc(NC(=O)CC#N)ccc1-c1cc(NC(=O)C2CC2)nc2[nH]ccc12 [Example 240, N-(4-(4-(2-cyanoacetamido)-2-methylphenyl)-1H-pyrrolo[2,3-b]pyridin-6-yl)cyclopropanecarboxamide] | > 0.2 |
| O=C(NCC(F)(F)F)c1ccc(-c2cc(NC(=O)C3CC3)nc3[nH]ccc23)cc1 [Example 524, 4-(6-(cyclopropanecarboxamido)-1H-pyrrolo[2,3-b]pyridin-4-yl)-N-(2,2,2-trifluoroethyl)benzamide] | < 0.02 |
| N#CCC(=O)N1C2CC1CN(c1cc(NC(=O)C3CC3)nc3[nH]ccc13)C2 [Example 685, N-(4-(6-(2-cyanoacetyl)-3,6-diazabicyclo[3.1.1]heptan-3-yl)-1H-pyrrolo[2,3-b]pyridin-6-yl)cyclopropanecarboxamide] | > 0.2 |
| CCCS(=O)(=O)Nc1ccc(-c2cc(NC(=O)C3CC3)nc3[nH]ccc23)c(C)c1F [Example 100, N-(4-(3-fluoro-2-methyl-4-(propylsulfonamido)phenyl)-1H-pyrrolo[2,3-b]pyridin-6-yl)cyclopropanecarboxamide] | 0.02 to 0.2 |
| C[C@@H]1CN(C(=O)c2ccnc(Cl)c2)CC=C1c1cc(NC(=O)C2CC2)nc2[nH]ccc12 [Example 399, (S)—N-(4-(1-(2-chloroisonicotinoyl)-3-methyl-1,2,3,6-tetrahydropyridin-4-yl)-1H-pyrrolo[2,3-b]pyridin-6-yl)cyclopropanecarboxamide] | < 0.02 |
| N#CC1(CS(=O)(=O)NC2CC=C(c3cc(NC(=O)C4CC4)nc4[nH]ccc34)CC2)CC1 (stereo not drawn) [Example 157, N-(4-(4-(((1-cyanocyclopropyl)methyl)sulfonamido)cyclohex-1-en-1-yl)-1H-pyrrolo[2,3-b]pyridin-6-yl)cyclopropanecarboxamide] | < 0.02 |
| CCCCS(=O)(=O)Nc1ccc(-c2nc(NC(=O)C3CC3)nc3[nH]ccc23)cc1 [Example 191, N-(4-(4-(butylsulfonamido)phenyl)-7H-pyrrolo[2,3-d]pyrimidin-2-yl)cyclopropanecarboxamide] | < 0.02 |
| O=C(NC1CC=C(c2cc(NC(=O)C3CC3)nc3[nH]ccc23)CC1)c1ccccc1 (stereo not drawn) [Example 243, N-(4-(6-(cyclopropanecarboxamido)-1H-pyrrolo[2,3-b]pyridin-4-yl)cyclohex-3-en-1-yl)benzamide] | 0.02 to 0.2 |
| O=C(Nc1cc(C2=CC3CCCC(C2)N3C(=O)c2cccc(Br)c2)c2cc[nH]c2n1)C1CC1 (stereo not drawn) [Example 371, N-(4-(9-(3-bromobenzoyl)-9-azabicyclo[3.3.1]non-2-en-3-yl)-1H-pyrrolo[2,3-b]pyridin-6-yl)cyclopropanecarboxamide] | 0.02 to 0.2 |
| N#CCCC(=O)N1C=C(c2cc(NC(=O)C3CC3)nc3[nH]ccc23)CCC1 [Example 418, N-(4-(1-(3-cyanopropanoyl)-1,4,5,6-tetrahydropyridin-3-yl)-1H-pyrrolo[2,3-b]pyridin-6-yl)cyclopropanecarboxamide] | > 0.2 |
| O=C(Nc1cc(C2=CCC(NS(=O)(=O)N3CCOCC3)CC2)c2cc[nH]c2n1)C1CC1 (stereo not drawn) [Example 231, N-(4-(4-(morpholine-4-sulfonamido)cyclohex-1-en-1-yl)-1H-pyrrolo[2,3-b]pyridin-6-yl)cyclopropanecarboxamide] | < 0.02 |
| C=CCS(=O)(=O)Nc1ccc(-c2cc(NC(=O)C3CC3)nc3[nH]ccc23)cc1F [Example 71, N-(4-(4-(allylsulfonamido)-3-fluorophenyl)-1H-pyrrolo[2,3-b]pyridin-6-yl)cyclopropanecarboxamide] | < 0.02 |
| N#CCC(=O)N1CC=C(c2cc(NC(=O)C3CC3)nc3[nH]ccc23)CC1C(F)(F)F (stereo not drawn) [Example 393, N-(4-(1-(2-cyanoacetyl)-2-(trifluoromethyl)-1,2,3,6-tetrahydropyridin-4-yl)-1H-pyrrolo[2,3-b]pyridin-6-yl)cyclopropanecarboxamide] | < 0.02 |
| CC(C)(C)OC(=O)N[C@H]1CCN(c2nc(NC(=O)C3CC3)nc3[nH]ccc23)C1 [Example 696, tert-butyl (S)-(1-(2-(cyclopropanecarboxamido)-7H-pyrrolo[2,3-d]pyrimidin-4-yl)pyrrolidin-3-yl)carbamate] | > 0.2 |
| O=C(Nc1cc(C2CCN(C(=O)NCC(F)(F)F)CC2)c2cc[nH]c2n1)C1CC1 [Example 654, 4-(6-(cyclopropanecarboxamido)-1H-pyrrolo[2,3-b]pyridin-4-yl)-N-(2,2,2-trifluoroethyl)piperidine-1-carboxamide] | > 0.2 |
| O=C(Nc1cc(-c2ccc(NS(=O)(=O)C3CS(=O)(=O)C3)cc2)c2cc[nH]c2n1)C1CC1 [Example 11, N-(4-(4-((1,1-dioxidothietane)-3-sulfonamido)phenyl)-1H-pyrrolo[2,3-b]pyridin-6-yl)cyclopropanecarboxamide] | < 0.02 |
| CC1(CN2CC=C(c3cc(NC(=O)C4CC4)nc4[nH]ccc34)CC2)COC1 [Example 487, N-(4-(1-((3-methyloxetan-3-yl)methyl)-1,2,3,6-tetrahydropyridin-4-yl)-1H-pyrrolo[2,3-b]pyridin-6-yl)cyclopropanecarboxamide] | > 0.2 |
